# Source: patent US7598417B2, “Substituted fluoroethyl ureas as alpha 2 adrenergic agents” (Allergan, Inc., priority 2007, dated 2009)
# Tests used:
# Assay type in all cases: cell-based
# alpha2C receptor = target: T1, alpha2C receptor (Homo sapiens, UniProt P18825); assay: Receptor Selection and Amplification Technology (RSAT) assay, alpha2C; settings: for EC50 / Alpha 2C EC50: RSAT, NIH-3T3 cells cotransfected with receptor and Gq/i5, not active = not active at concentrations less than 10 micromolar; for EC50: read-out: Alpha 2C EC50; for Alpha 2C IA (intrinsic activity): ratio of maximal effect of the drug to maximal effect of standard full agonist brimonidine (UK14304)
# T1 construct: expressed in transfected cells; host or cells: NIH-3T3
# T1 sequence (P18825 1-462): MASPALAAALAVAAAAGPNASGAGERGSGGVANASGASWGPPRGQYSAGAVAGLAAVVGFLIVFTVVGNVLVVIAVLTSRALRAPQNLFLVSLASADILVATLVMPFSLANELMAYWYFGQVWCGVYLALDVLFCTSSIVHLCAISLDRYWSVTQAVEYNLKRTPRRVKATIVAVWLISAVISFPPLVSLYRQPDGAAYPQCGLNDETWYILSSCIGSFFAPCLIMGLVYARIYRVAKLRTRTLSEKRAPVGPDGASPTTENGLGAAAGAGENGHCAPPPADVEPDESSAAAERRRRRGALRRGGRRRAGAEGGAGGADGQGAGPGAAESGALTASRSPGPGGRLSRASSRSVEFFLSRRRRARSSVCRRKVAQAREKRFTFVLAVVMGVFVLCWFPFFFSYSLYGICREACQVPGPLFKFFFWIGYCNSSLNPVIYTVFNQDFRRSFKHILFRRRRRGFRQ
# Method: (§1) Receptor Selection and Amplification Technology (RSAT) Assay
# (§2) The RSAT assay measures a receptor-mediated loss of contact inhibition that results in selective proliferation of receptor-containing cells in a mixed population of confluent cells. The increase in cell number is assessed with an appropriate transfected marker gene such as β-galactosidase, the activity of which can be easily measured in a 96-well format. Receptors that activate the G protein, Gq, elicit this response. Alpha2 receptors, which normally couple to Gi, activate the RSAT response when coexpressed with a hybrid Gq protein that has a Gi receptor recognition domain, called Gq/i5.
# (§3) NIH-3T3 cells are plated at a density of 2×10^6 cells in 15 cm dishes and maintained in Dulbecco's modified Eagle's medium supplemented with 10% calf serum. One day later, cells are cotransfected by calcium phosphate precipitation with mammalian expression plasmids encoding p-SV-β-galactosidase (5-10 μg), receptor (1-2 μg) and G protein (1-2 μg). 40 μg salmon sperm DNA may also be included in the transfection mixture. Fresh media is added on the following day and 1-2 days later, cells are harvested and frozen in 50 assay aliquots. Cells are thawed and 100 μl added to 100 μl aliquots of various concentrations of drugs in triplicate in 96-well dishes. Incubations continue 72-96 hr at 37° C. After washing with phosphate-buffered saline, β-galactosidase enzyme activity is determined by adding 200 μl of the chromogenic substrate (consisting of 3.5 mM o-nitrophenyl-β-D-galactopyranoside and 0.5% nonidet P-40 in phosphate buffered saline), incubating overnight at 30° C. and measuring optical density at 420 nm. The absorbance is a measure of enzyme activity, which depends on cell number and reflects a receptor-mediated cell proliferation. The efficacy or intrinsic activity is calculated as a ratio of the maximal effect of the drug to the maximal effect of a standard full agonist for each receptor subtype. Brimonidine, also called UK14304, the chemical structure of which is shown below, is used as the standard agonist for the alpha2A, alpha2B and alpha2C receptors. The EC50 is the concentration at which the drug effect is half of its maximal effect.
# (§4) EC50 values are nanomolar. NA stands for “not active” at concentrations less than 10 micromolar. IA stands for “intrinsic activity.”
# alpha2B receptor = target: T2, alpha2B receptor (Homo sapiens, UniProt P18089); assay: Receptor Selection and Amplification Technology (RSAT) assay, alpha2B; settings: for EC50: read-out: Alpha 2B EC50; for Alpha 2B IA (intrinsic activity): ratio of maximal effect of the drug to maximal effect of standard full agonist brimonidine (UK14304)
# T2 construct: expressed in transfected cells; host or cells: NIH-3T3
# T2 sequence (P18089 1-450): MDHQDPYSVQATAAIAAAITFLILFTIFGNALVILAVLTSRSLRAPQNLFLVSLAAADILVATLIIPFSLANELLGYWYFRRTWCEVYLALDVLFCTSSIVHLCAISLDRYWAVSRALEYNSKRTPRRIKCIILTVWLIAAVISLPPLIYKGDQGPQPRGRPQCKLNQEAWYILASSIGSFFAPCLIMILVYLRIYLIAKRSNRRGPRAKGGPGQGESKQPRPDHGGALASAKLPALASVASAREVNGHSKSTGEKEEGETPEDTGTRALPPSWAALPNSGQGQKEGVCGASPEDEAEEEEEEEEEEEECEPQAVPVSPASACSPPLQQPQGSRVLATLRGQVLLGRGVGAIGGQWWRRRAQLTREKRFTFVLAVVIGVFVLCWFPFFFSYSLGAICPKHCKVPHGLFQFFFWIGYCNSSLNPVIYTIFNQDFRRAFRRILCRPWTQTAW
# Method: as §1, §2, §3
# The results of the RSAT assay with several exemplary compounds of the invention are disclosed in Table 1 above together with the chemical formulas of these exemplary compounds. EC50 values are nanomolar. NA stands for “not active” at concentrations less than 10 micromolar. IA stands for “intrinsic activity.”
# alpha2A receptor = target: T3, alpha2A receptor (Homo sapiens, UniProt P08913); assay: Receptor Selection and Amplification Technology (RSAT) assay, alpha2A
# T3 construct: expressed in transfected cells; host or cells: NIH-3T3
# T3 sequence (P08913 1-465): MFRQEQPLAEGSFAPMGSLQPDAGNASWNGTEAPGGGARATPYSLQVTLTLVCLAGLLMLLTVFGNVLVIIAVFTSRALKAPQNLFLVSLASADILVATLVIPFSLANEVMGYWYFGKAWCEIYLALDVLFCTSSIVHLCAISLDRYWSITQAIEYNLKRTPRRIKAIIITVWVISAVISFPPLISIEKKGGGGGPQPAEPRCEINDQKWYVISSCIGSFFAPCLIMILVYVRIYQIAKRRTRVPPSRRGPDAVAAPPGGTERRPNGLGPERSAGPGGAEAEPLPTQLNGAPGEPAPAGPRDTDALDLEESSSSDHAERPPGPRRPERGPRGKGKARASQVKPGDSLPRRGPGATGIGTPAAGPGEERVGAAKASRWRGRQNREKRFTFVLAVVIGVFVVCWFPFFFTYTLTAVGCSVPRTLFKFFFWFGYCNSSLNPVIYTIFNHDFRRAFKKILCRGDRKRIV
# Method: as §1, §2, §3, §4
# [1] = RSAT, NIH-3T3 cells cotransfected with receptor and Gq/i5, not active = not active at concentrations less than 10 micromolar
SMILES,EC50 (alpha2C receptor) [µM],Alpha 2C IA (intrinsic activity) (alpha2C receptor),EC50 (alpha2B receptor; [1]) [µM],Alpha 2B IA (intrinsic activity) (alpha2B receptor),Alpha 2A EC50 (alpha2A receptor; [1]),Alpha 2B EC50 (alpha2B receptor; [1]),Alpha 2C EC50 (alpha2C receptor),"EC50 (alpha2A receptor; RSAT, NIH-3T3 cells cotransfected with receptor and Gq/i5, not active = not active at concentrations less than 10 micromolar, read-out: Alpha 2A EC50) [µM]",Alpha 2A IA (intrinsic activity) (alpha2A receptor; ratio of maximal effect of the drug to maximal effect of standard full agonist brimonidine (UK14304))
CC1=CC(NC(=O)NCCF)CC1 (stereo not shown),0.911,0.47,1.16,0.61,not active,,,,
O=C(NCCF)NC1CCc2ccccc21 (stereo not shown),0.192,0.64,0.0063,1.21,not active,,,,
CC1CC(NC(=O)NCCF)c2ccccc21 (stereo not shown),0.168,0.43,0.0109,0.96,not active,,,,
O=C(NCCF)NC1CCc2cc(F)ccc21 (stereo not shown),0.543,0.54,0.088,0.59,not active,,,,
COc1ccc2c(c1)CCC2NC(=O)NCCF (stereo not shown),1.44,0.35,,,not active,not active,,,
O=C(NCCF)NC1CCc2ccc(F)cc21 (stereo not shown),0.06,0.47,0.02,0.54,not active,,,,
O=C(NCCF)NC1CCc2ccc(Br)cc21 (stereo not shown),0.22,0.45,0.302,0.52,not active,,,,
O=C(NCCF)N[C@H]1CCc2ccccc21,0.0175,0.47,0.0016,1.0,not active,,,,
Cc1ccc2c(c1)CCC2NC(=O)NCCF (stereo not shown),,,0.247,0.71,not active,,not active,,
O=C(NCCF)NCC1CCc2ccccc21 (stereo not shown),> 2,0.38,0.38,0.76,not active,,,,
COc1ccc2c(c1)CC(NC(=O)NCCF)C2 (stereo not shown),,,1.37,0.45,not active,,not active,,
Cc1cccc2c1CC(NC(=O)NCCF)C2 (stereo not shown),0.454,0.4,0.1,0.98,not active,,,,
COc1cccc2c1CC(NC(=O)NCCF)C2 (stereo not shown),0.041,0.63,0.0075,1.57,not active,,,,
Cc1ccc2c(c1)CC(NC(=O)NCCF)C2 (stereo not shown),,,0.637,0.6,not active,,not active,,
O=C(NCCF)NC1Cc2ccc(Cl)cc2C1 (stereo not shown),,,1.78,0.31,not active,,not active,,
O=C(NCCF)NC1Cc2cccc(Br)c2C1 (stereo not shown),,,0.156,0.45,not active,,not active,,
O=C(NCCF)NC1Cc2cccc(F)c2C1 (stereo not shown),0.182,0.32,0.021,0.68,not active,,,,
O=C(NCCF)NC1Cc2ccc(F)cc2C1 (stereo not shown),,,2.2,0.93,not active,,not active,,
O=C(NCCF)NC1Cc2cccc(Cl)c2C1 (stereo not shown),0.0125,0.44,0.0154,0.67,not active,,,,
O=C(NCCF)NC1CCc2ccc(Cl)c(Cl)c21 (stereo not shown),0.0295,0.43,0.0724,1.0,not active,,,,
Cc1ccc2c(c1C)C(NC(=O)NCCF)CC2 (stereo not shown),,,0.649,0.64,not active,,not active,,
CCc1cccc2c1CCCC2NC(=O)NCCF (stereo not shown),0.904,0.34,0.158,0.93,,,,0.45,0.32
